Data reported in ChEMBL document CHEMBL4387741, “Optimization of novel reversible Bruton's tyrosine kinase inhibitors identified using Tethering-fragment-based screens” (Bioorg Med Chem, 2019).

Tests used:
[1] = molecular target: Tyrosine-protein kinase Fyn (Homo sapiens) (UniProt P06241); test: Inhibition of wild-type human partial length FYN (T243 to L534 residues) expressed in bacterial expression system at 1 uM by Kinomescan method relative to control
[2] = molecular target: Bone morphogenetic protein receptor type-2 (Homo sapiens) (UniProt Q13873); test: Inhibition of wild-type human partial length BMPR2 (R179 to Q526 residues) expressed in mammalian expression system at 1 uM by Kinomescan method relative to control
[3] = molecular target: Serine/threonine-protein kinase WNK4 (Homo sapiens) (UniProt Q96J92); test: Inhibition of wild-type human partial length WNK4 (A31 to D461 residues) expressed in mammalian expression system at 1 uM by Kinomescan method relative to control
[4] = molecular target: Serine/threonine-protein kinase 38 (Homo sapiens) (UniProt Q15208); test: Inhibition of wild-type human partial length NDR1 (N33 to E449 residues) expressed in mammalian expression system at 1 uM by Kinomescan method relative to control
[5] = molecular target: Serine/threonine-protein kinase RIO3 (Homo sapiens) (UniProt O14730); test: Inhibition of wild-type human full length RIOK3 (M1 to E519 residues) expressed in bacterial expression system at 1 uM by Kinomescan method relative to control
[6] = molecular target: Ephrin type-A receptor 7 (Homo sapiens) (UniProt Q15375); test: Inhibition of wild-type human partial length EPHA7 (Y608 to S912 residues) expressed in bacterial expression system at 1 uM by Kinomescan method relative to control
[7] = molecular target: Calcium/calmodulin-dependent protein kinase type II subunit beta (Homo sapiens) (UniProt Q13554); test: Inhibition of wild-type human partial length CAMK2B (M1 to Q380 residues) expressed in bacterial expression system at 1 uM by Kinomescan method relative to control
[8] = molecular target: Casein kinase II subunit alpha (Homo sapiens) (UniProt P68400); test: Inhibition of wild-type human full length CSNK2A1 (M1 to Q391 residues) expressed in mammalian expression system at 1 uM by Kinomescan method relative to control
[9] = molecular target: Phosphatidylinositol 5-phosphate 4-kinase type-2 beta (Homo sapiens) (UniProt P78356); test: Inhibition of wild-type human full length PIP5K2B (M1 to T416 residues) expressed in bacterial expression system at 1 uM by Kinomescan method relative to control
[10] = system: Tyrosine-protein kinase ABL1 (Homo sapiens), P00519 [F317L]; test: Inhibition of human phosphorylated ABL1 F317L mutant (S229 to K512 residues) expressed in mammalian expression system at 1 uM by Kinomescan method relative to control
[11] = molecular target: TRAF2 and NCK-interacting protein kinase (Homo sapiens) (UniProt Q9UKE5); test: Inhibition of wild-type human partial length TNIK (D4 to K311 residues) expressed in bacterial expression system at 1 uM by Kinomescan method relative to control
[12] = molecular target: MAP kinase-interacting serine/threonine-protein kinase 2 (Homo sapiens) (UniProt Q9HBH9); test: Inhibition of wild-type human partial length MKNK2 (G63 to S388 residues) expressed in mammalian expression system at 1 uM by Kinomescan method relative to control
[13] = molecular target: Megakaryocyte-associated tyrosine-protein kinase (Homo sapiens) (UniProt P42679); test: Inhibition of wild-type human full length CTK (M43 to P508 residues) expressed in mammalian expression system at 1 uM by Kinomescan method relative to control
[14] = molecular target: Epidermal growth factor receptor (Homo sapiens) (UniProt P00533); test: Inhibition of wild-type human partial length EGFR (R669 to V1011 residues) expressed in bacterial expression system at 1 uM by Kinomescan method relative to control
[15] = molecular target: Serine/threonine-protein kinase BRSK2 (Homo sapiens) (UniProt Q8IWQ3); test: Inhibition of wild-type human full length BRSK2 (M1 to L674 residues) expressed in bacterial expression system at 10 uM by Kinomescan method relative to control
[16] = molecular target: Megakaryocyte-associated tyrosine-protein kinase (Homo sapiens) (UniProt P42679); test: Inhibition of wild-type human full length CTK (M43 to P508 residues) expressed in mammalian expression system at 10 uM by Kinomescan method relative to control
[17] = molecular target: Serine/threonine-protein kinase B-raf (Homo sapiens) (UniProt P15056); test: Inhibition of wild-type human partial length BRAF (S429 to E741 residues) expressed in mammalian expression system at 10 uM by Kinomescan method relative to control
[18] = molecular target: Tyrosine-protein kinase JAK1 (Homo sapiens) (UniProt P23458); test: Inhibition of wild-type human partial length JAK1 JH2 pseudokinase domain (R537 to D855 residues) expressed in mammalian expression system at 10 uM by Kinomescan method relative to control
[19] = molecular target: Myosin light chain kinase family member 4 (Homo sapiens) (UniProt Q86YV6); test: Inhibition of wild-type human partial length MYLK4 (V79 to S380 residues) expressed in bacterial expression system at 10 uM by Kinomescan method relative to control
[20] = molecular target: Serine/threonine-protein kinase ICK (Homo sapiens) (UniProt Q9UPZ9); test: Inhibition of wild-type human partial length ICK (M1 to P314 residues) expressed in mammalian expression system at 10 uM by Kinomescan method relative to control
[21] = molecular target: Tyrosine-protein kinase BTK (Homo sapiens, UniProt Q06187); settings: 10 uM
Description: Inhibition of wild-type human full length BTK (M1 to S659 residues) expressed in mammalian expression system at 10 uM by Kinomescan method relative to control

[22] = molecular target: Serine/threonine-protein kinase PLK1 (Homo sapiens) (UniProt P53350); test: Inhibition of wild-type human partial length PLK1 (A33 to F325 residues) expressed in mammalian expression system at 10 uM by Kinomescan method relative to control
[23] = molecular target: Focal adhesion kinase 1 (Homo sapiens) (UniProt Q05397); test: Inhibition of wild-type human partial length FAK (D402 to R696 residues) expressed in bacterial expression system at 10 uM by Kinomescan method relative to control
[24] = molecular target: Membrane-associated tyrosine- and threonine-specific cdc2-inhibitory kinase (Homo sapiens) (UniProt Q99640); test: Inhibition of wild-type human partial length PKMYT1 (A88 to G366 residues) expressed in bacterial expression system at 10 uM by Kinomescan method relative to control
[25] = molecular target: TRAF2 and NCK-interacting protein kinase (Homo sapiens) (UniProt Q9UKE5); test: Inhibition of wild-type human partial length TNIK (D4 to K311 residues) expressed in bacterial expression system at 10 uM by Kinomescan method relative to control
[26] = system: Tyrosine-protein kinase ABL1 (Homo sapiens), P00519 [Q252H]; test: Inhibition of human non-phosphorylated ABL1 Q252H mutant (S229 to K512 residues) expressed in mammalian expression system at 10 uM by Kinomescan method relative to control
[27] = system: Mast/stem cell growth factor receptor Kit (Homo sapiens), P10721 [V559D,T670I]; test: Inhibition of human partial length KIT V559D/T670I double mutant (Y545 to D952 residues) expressed in bacterial expression system at 10 uM by Kinomescan method relative to control
[28] = molecular target: Death-associated protein kinase 1 (Homo sapiens) (UniProt P53355); test: Inhibition of wild-type human partial length DAPK1 (M1 to F296 residues) expressed in bacterial expression system at 10 uM by Kinomescan method relative to control
Sequence of Death-associated protein kinase 1 (Homo sapiens) (P53355 whole entry, looked up, the tested form may be a part): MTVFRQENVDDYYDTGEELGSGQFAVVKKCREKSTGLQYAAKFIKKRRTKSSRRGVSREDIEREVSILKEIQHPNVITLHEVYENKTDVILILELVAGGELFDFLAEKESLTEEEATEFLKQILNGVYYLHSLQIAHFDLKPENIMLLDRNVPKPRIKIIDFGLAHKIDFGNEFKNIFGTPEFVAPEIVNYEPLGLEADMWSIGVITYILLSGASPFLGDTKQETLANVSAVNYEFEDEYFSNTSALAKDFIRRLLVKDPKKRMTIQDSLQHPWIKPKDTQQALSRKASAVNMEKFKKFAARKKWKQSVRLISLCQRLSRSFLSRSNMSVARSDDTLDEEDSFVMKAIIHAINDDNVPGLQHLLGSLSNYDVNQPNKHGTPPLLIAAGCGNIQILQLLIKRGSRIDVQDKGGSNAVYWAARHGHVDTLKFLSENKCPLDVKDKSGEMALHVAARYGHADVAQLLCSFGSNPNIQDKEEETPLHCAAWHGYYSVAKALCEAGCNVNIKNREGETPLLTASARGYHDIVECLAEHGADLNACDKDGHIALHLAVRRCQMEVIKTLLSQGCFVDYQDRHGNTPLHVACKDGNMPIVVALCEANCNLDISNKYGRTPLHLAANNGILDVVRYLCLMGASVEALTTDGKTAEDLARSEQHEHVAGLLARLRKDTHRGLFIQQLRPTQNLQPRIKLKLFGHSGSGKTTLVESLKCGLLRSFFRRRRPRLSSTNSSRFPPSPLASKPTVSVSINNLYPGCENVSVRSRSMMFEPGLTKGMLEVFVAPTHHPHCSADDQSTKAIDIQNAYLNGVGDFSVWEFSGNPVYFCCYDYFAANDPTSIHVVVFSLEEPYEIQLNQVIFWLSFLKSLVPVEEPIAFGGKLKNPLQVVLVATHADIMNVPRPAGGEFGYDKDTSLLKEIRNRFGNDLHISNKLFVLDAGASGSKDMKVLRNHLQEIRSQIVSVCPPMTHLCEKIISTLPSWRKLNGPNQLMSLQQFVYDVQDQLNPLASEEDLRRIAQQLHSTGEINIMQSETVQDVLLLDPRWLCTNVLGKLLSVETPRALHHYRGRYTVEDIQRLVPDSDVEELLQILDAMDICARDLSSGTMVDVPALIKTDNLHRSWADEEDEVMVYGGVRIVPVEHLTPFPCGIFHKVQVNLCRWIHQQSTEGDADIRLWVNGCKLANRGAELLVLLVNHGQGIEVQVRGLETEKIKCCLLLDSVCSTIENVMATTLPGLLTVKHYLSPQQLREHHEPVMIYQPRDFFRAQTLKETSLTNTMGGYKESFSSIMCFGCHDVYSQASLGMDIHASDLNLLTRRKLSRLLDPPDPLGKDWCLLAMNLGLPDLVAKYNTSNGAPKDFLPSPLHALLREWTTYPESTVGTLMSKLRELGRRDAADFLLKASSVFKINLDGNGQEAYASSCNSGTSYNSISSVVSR

Sequence of Megakaryocyte-associated tyrosine-protein kinase (Homo sapiens) (P42679 whole entry, the tested form may be a part): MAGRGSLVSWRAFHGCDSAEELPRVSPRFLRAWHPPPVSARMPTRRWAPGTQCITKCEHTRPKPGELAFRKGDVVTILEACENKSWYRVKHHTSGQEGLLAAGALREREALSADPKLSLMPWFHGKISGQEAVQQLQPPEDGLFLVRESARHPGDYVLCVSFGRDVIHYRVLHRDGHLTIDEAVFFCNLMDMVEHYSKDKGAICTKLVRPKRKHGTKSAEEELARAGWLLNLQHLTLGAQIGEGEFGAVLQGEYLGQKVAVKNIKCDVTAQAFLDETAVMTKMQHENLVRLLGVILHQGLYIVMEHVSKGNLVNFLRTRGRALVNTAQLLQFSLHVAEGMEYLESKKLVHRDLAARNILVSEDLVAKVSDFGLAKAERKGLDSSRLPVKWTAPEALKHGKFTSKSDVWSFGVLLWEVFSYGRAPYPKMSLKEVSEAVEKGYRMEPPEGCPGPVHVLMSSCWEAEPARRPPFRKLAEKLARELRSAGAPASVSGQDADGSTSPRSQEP
Sequence of TRAF2 and NCK-interacting protein kinase (Homo sapiens) (Q9UKE5 whole entry, looked up, the tested form may be a part): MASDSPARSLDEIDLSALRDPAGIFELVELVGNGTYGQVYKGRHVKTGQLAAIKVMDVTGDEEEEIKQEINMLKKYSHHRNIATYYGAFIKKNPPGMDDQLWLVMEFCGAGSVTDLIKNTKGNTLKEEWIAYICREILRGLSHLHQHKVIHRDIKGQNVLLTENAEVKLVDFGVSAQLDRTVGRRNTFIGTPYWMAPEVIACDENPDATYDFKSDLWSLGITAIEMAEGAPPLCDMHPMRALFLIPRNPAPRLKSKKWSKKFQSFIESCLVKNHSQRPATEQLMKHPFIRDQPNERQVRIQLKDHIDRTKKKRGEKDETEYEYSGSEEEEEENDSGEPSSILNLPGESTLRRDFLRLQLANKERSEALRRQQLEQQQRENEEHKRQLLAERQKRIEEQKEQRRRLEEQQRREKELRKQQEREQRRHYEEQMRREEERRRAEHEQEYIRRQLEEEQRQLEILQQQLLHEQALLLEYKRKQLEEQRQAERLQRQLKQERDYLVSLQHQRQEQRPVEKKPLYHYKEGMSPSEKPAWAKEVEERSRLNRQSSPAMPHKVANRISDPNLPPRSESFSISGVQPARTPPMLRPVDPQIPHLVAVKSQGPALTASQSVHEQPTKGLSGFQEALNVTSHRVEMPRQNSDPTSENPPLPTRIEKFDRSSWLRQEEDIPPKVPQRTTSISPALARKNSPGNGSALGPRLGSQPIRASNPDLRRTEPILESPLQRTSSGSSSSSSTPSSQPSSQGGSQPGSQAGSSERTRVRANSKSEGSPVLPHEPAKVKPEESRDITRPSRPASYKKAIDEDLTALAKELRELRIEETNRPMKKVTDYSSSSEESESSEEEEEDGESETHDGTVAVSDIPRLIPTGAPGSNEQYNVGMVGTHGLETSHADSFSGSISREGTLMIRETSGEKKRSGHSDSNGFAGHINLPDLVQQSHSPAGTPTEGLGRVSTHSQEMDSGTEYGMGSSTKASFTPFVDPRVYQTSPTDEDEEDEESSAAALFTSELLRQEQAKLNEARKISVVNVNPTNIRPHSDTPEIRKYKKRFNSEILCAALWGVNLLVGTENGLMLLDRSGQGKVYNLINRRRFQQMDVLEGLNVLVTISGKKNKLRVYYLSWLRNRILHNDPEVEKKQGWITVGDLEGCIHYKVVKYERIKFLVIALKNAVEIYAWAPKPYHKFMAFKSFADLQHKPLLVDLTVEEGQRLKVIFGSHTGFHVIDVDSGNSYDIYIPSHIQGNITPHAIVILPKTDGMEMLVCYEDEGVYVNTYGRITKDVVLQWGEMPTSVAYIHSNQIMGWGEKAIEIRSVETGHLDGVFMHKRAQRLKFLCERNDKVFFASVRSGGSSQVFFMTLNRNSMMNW
Sequence of Serine/threonine-protein kinase RIO3 (Homo sapiens) (O14730 whole entry, the tested form may be a part): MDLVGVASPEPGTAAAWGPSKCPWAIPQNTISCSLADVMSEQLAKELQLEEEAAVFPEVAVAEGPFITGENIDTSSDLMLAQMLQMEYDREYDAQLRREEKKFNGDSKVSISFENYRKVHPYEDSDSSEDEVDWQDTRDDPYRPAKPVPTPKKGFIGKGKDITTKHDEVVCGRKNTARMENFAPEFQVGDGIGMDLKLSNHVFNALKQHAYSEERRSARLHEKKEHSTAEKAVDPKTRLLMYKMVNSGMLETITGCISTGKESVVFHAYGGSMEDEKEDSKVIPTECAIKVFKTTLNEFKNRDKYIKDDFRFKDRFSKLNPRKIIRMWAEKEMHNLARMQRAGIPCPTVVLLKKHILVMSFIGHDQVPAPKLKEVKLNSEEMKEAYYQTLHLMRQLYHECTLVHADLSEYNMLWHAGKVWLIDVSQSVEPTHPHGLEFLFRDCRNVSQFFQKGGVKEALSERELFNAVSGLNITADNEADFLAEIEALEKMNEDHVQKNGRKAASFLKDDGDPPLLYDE
Sequence of Tyrosine-protein kinase Fyn (Homo sapiens) (P06241 2-537 limits assumed): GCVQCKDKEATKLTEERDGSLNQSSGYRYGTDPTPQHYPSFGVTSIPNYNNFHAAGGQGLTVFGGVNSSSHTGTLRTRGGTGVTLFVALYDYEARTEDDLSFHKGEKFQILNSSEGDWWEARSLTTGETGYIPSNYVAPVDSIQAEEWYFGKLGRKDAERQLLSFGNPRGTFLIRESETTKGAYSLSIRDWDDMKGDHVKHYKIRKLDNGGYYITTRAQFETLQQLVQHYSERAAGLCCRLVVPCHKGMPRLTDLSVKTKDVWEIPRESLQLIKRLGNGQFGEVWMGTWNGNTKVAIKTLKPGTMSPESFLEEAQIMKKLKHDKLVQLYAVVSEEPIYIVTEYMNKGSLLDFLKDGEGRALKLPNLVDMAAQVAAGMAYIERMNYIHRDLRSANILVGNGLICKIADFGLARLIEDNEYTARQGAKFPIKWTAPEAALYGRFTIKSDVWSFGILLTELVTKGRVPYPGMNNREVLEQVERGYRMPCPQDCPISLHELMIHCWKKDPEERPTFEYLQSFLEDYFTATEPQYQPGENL
Sequence of MAP kinase-interacting serine/threonine-protein kinase 2 (Homo sapiens) (Q9HBH9 whole entry, looked up, the tested form may be a part): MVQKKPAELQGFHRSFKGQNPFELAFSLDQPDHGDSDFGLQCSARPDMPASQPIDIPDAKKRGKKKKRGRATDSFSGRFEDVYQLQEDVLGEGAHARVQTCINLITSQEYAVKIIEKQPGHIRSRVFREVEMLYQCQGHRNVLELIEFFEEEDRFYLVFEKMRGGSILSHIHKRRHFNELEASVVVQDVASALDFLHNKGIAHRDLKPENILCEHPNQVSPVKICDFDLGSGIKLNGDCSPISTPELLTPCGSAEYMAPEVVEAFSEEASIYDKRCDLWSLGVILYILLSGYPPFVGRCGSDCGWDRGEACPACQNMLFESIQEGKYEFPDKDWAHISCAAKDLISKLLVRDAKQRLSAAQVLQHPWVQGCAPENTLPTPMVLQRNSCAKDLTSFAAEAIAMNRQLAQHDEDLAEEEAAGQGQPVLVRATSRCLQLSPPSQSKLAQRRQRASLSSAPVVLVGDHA

With `O=C(Nc1cccc([C@@H]2CN(c3ncnc4[nH]ccc34)CCN2CCO)c1)Nc1c(F)cccc1N1CCCC1` the inhibition [1] was 52%, the inhibition [2] was 91% and the inhibition [3] was 96%. The inhibition [4] was 72%, the inhibition [5] was 26% and the inhibition [6] was 100%. For the same compound, the inhibition [7] was 92%, the inhibition [8] was 93% and the inhibition [9] was 96%. For the same compound, the inhibition [10] was 100%, the inhibition [11] was 81% and the inhibition [12] was 64%. It also gave an inhibition [13] of 81% and an inhibition [14] of 100%.

In the case of `O=C(Nc1cccc([C@H]2CCCN(c3ncnc4[nH]ccc34)C2)c1)Nc1ccccc1N1CCCC1`, the inhibition [15] is reported as 92%, the inhibition [16] is reported as 85% and the inhibition [17] is reported as 35%. It also gave an inhibition [18] of 61%, an inhibition [19] of 2.6% and an inhibition [20] of 100%. The inhibition [21] was 0.6%, the inhibition [22] was 72% and the inhibition [23] was 90%. For the same compound, the inhibition [24] was 71%, the inhibition [25] was 26% and the inhibition [26] was 25%. For the same compound, the inhibition [27] was 0.3% and the inhibition [28] was 4%.
